These results are taken from US20240041764A1, “Sustained-Release Oral Fosamprenavir Formulation for Treatment of Reflux” (The Medical College of Wisconsin, Inc., priority 2022, published 2024).

Data set [1] relates to LPR mouse model (pepsin-mediated laryngeal damage). As to the kind of experiment: in vivo LPR mouse model: mechanical injury plus laryngeal pepsin instillation, H&E histology. Conditions: for protection against pepsin-mediated laryngeal damage (histology): 0.3 mg/ml pepsin pH7, 4 weeks. From the text:
Three replicate animals per treatment condition were anticipated to suffice for verification of reproducibility in each experiment without excessive use of animal life. The three mice were randomly allocated to treatment groups. No data were excluded from analysis.
Six-week-old female Jackson A/J mice (Jackson Laboratory, Bar Harbor, ME) were fed D-62 powdered Wattenberg diet, 2 g/mouse/day^95 and allowed to acclimate for one week upon arrival prior to experiments. In accord with previously established methods for modeling aerodigestive tract damage attributed to GERD and LPR,^1,95-99 mechanical injury applied during the first two weeks of a four-week treatment course was used to predispose the laryngeal mucosa to chemical injury by pepsin/acid applied throughout the four weeks. […] Briefly, anesthetized mice were suspended by upper teeth on a slanted board under an operating microscope.
In a preliminary experiment to validate the LPR mouse model (i.e. laryngeal damage by pepsin at neutral and acidic pH), 20 μl saline (solvent control) or 0.3 mg/ml pepsin at pH7.0 or 4.0 were provided to mice (n=3) by laryngeal instillation at 24, 48, and 72 hours after mechanical injury during weeks 1 and 2 (FIG. 6); laryngeal instillation without wounding (3 days/week) continued during weeks 3 and 4. […] Mice were sacrificed at conclusion of the fourth week.
To test the protective effect of HIV protease inhibitors on pepsin-mediated damage in vivo, inhibitors were delivered by aerosol or gavage concurrently with wounding (days 2, 8) and solvent/pepsin instillation (days 3-5, 9-11, 16-18 and 23-25). Aerosol or gavage was provided on days 1-5, 8-12, 15-19, and 22-25, and mice sacrificed day 26. Mice were anesthetized with isoflurane (3% in 2.5LPM, 3-5 minutes prior to procedures) as opposed to Avertin due to frequency. […] Aerosol was generated as described^100. Briefly, a 10 ml suspension of drug in ethanol was placed in the baffle, such that the concentration would remain constant at the equilibrium solubility. Droplets of ethanol containing dissolved drug were generated by an ultrasonic atomizer (nominal frequency 1.7 MHz) and entrained by air at a flow rate of 0.5 LPM with a custom-built glass baffle (UMN Department of Chemistry Glass Shop). The aerosol cloud was then passed through a cylindrical drying column containing an annular ring of charcoal. The ethanol was removed and the emanating dry aerosol particles of pure drug were then directed into the exposure chamber. The mass deposited on filters was measured gravimetrically and total output rate (mg/min) was determined. The aerosol concentration (mass/volume of air) was calculated by dividing the total output rate by the air flow rate (0.5 LPM). The inhaled mass of drug (Minh) for each mouse was defined as Minh=[Aerosol]*RMV*t, where Aerosol is the aerosol concentration of drug, RMV is the respiratory minute volume of the mice (0.025 L/min), and t is the aerosol exposure time. […] Actual mass deposited was not determined but anticipated to be 10% of inhaled mass (the deposition fraction of […] aerosol particles in mice).
Tissues were collected, fixed in paraformaldehyde, embedded in paraffin and 4 um sections stained with hematoxylin and eosin (H&E) via automated stainer. Slides were reviewed by a board-certified pathologist (JM) blinded to treatment groups.

For data set [2] the following is noted: mice; cited from earlier work.
For data set [3] the following is noted: in vivo; cited from earlier work.
The conditions of data set [4]: prodrug relative to amprenavir; cited from earlier work.
Data set [5] can be described thus: solubility when preparing co-crystallization solutions. It is filed as physicochemical. Conditions: saturated solution in DMSO for co-crystallization; CryoSol SM2 chosen instead. The protocol: Supernatant of saturated saquinivar solution in SM2 was combined with pepsin at 5% f.c. (v/v). Crystallization conditions were optimized by screening 200 mg/ml pepsin in the Salt RX screen (Hampton Research, Viejo, CA). […] Diffraction quality crystals (triangular bi-pyramids, approximately 200×100×100 μm) formed after 2-7 days from hanging drops of 2 ul pepsin (180-210 mg/ml) and 1 ul microseed solution serially diluted 10-100× above 3-4M ammonium chloride and 0.1M sodium acetate trihydrate pH4.6. Crystals were cryoprotected by 30% glucose, 5M ammonium chloride and 0.1 M sodium acetate trihydrate pH4.6 and plunged in liquid nitrogen. Co-crystallization with saquinavir was performed in 0.1M acetic acid rather than sodium acetate trihydrate as this permitted large crystal formation without a microseed; crystals were cryoprotected by 30% w/v glucose, 5M ammonium chloride and 0.1 M sodium acetate trihydrate pH 4.6 and plunged in liquid nitrogen.

For data set [6], the target named is T1, porcine pepsin A (Sus scrofa, UniProt P00791).
T1 construct: purchased Worthington Biochemical Corporation
The data set can be described thus: competitive binding assay, fluorescence polarization with pepstatin-Alexa647. Particulars: 100 nM probe, 0.03 U/ul porcine pepsin A, 37.5% DMSO, 0.1 M HCl pH 1. The protocol:
To examine whether HIV protease inhibitors bound and inhibited pepsin, we developed assays based on fluorescence polarization which measures size-dependent molecular rotation thereby permitting detection of degradation, association and dissociation events^80. A competitive binding assay was designed employing pepstatin, an inhibitor of sub-nanomolar affinity^81. Pepstatin-Alexa647 was synthesized by dissolving 1 mg pepstatin A (Sigma-Aldrich) in a 50:50 mixture of dimethylformamide (DMF) and dimethylsulfoxide (DMS) followed by the addition of N,N,N′,N′-Tetramethyl-O—(N-succinimidyl)uronium tetrafluoroborate (0.6 mg) and trimethylamine (10 μL) DMF. The mixture was stirred for 1 hour, after which 1 mg Alexa Fluor 647 Cadaverine, Disodium Salt (ThermoFisher Scientific) was added. After 2 hours, the solvents were evaporated under high vacuum (35° C.) and residue partially dissolved in 10% methanol and transferred onto a C18 cartridge (Waters Corporation, Milford, MA). Increasing percentages of methanol were used for the elution. Pepstatin-Alexa647 eluted at 45% methanol. An enzymatic inhibition assay was designed using casein substrate.^82 Bovine alpha casein (Sigma-Aldrich, St. Louis, MO) was labeled with Alexa Fluor 647 Carboxylic Acid, Succinimidyl Ester (ThermoFisher Scientific, Waltham, MA) as described.^82 Briefly, the two were combined at 2.5 ug/mg label to protein ratio in 0.1M sodium bicarbonate for 15 minutes and labeled casein was separated from unbound label in a Sephadex G-25 (Sigma-Aldrich) column comprised of 90×5 mm packed beads in a glass Pasteur pipette, eluted with dPBS pH7.4 (ThermoFisher Scientific). The fast-moving band (casein-bound fluorophore) was collected in ˜0.4 ml volume. […]
(§1) Assays were optimized using ranges of 0.3-1000 μM unlabeled pepstatin, 100-500 nM pepstatin-Alexa647 or casein-Alexa647 probe, 0.003-3 U/μl porcine pepsin (Worthington Biochemical Corporation, Lakewood, NJ), and 5-37.5% DMSO (HIV protease inhibitor diluent) in 0.1 M HCl, pH 1 with 0.01% v/v Tween-20 in 20 μl volumes in 384-well black optical plates (Nunc, Roskilde, DK) and read on a BioTek Cytation 5 (BioTek Instruments, Winooski, VT) with far red FP filter cube (excitation/emission 620/680 nm). […] Assays were performed twice with triplicate reactions read for five minutes and mean mP plotted against probe concentration (binding assay) or read at <2 minutes intervals over 30 minutes with mean mP of plotted over time (activity assay). Half maximal inhibitory concentration (IC50) of inhibitors were calculated from kinetic traces analyzed using an online tool (https://icekat.herokuapp.com/icekat)^83. mP was normalized to blank (absent inhibitor) to derive percent bound or activity.

Data set [7] has as its target T2, porcine pepsin (Sus scrofa, UniProt P00791).
T2 construct: purchased Worthington Biochemical Corporation
The data set can be described thus: peptic activity assay, fluorescence polarization with casein-Alexa647. The format is biochemical. The protocol: To examine whether HIV protease inhibitors bound and inhibited pepsin, we developed assays based on fluorescence polarization which measures size-dependent molecular rotation thereby permitting detection of degradation, association and dissociation events^80. A competitive binding assay was designed employing pepstatin, an inhibitor of sub-nanomolar affinity^81. Pepstatin-Alexa647 was synthesized by dissolving 1 mg pepstatin A (Sigma-Aldrich) in a 50:50 mixture of dimethylformamide (DMF) and dimethylsulfoxide (DMS) followed by the addition of N,N,N′,N′-Tetramethyl-O—(N-succinimidyl)uronium tetrafluoroborate (0.6 mg) and trimethylamine (10 μL) DMF. The mixture was stirred for 1 hour, after which 1 mg Alexa Fluor 647 Cadaverine, Disodium Salt (ThermoFisher Scientific) was added. After 2 hours, the solvents were evaporated under high vacuum (35° C.) and residue partially dissolved in 10% methanol and transferred onto a C18 cartridge (Waters Corporation, Milford, MA). Increasing percentages of methanol were used for the elution. […] An enzymatic inhibition assay was designed using casein substrate.^82 Bovine alpha casein (Sigma-Aldrich, St. Louis, MO) was labeled with Alexa Fluor 647 Carboxylic Acid, Succinimidyl Ester (ThermoFisher Scientific, Waltham, MA) as described.^82 Briefly, the two were combined at 2.5 ug/mg label to protein ratio in 0.1M sodium bicarbonate for 15 minutes and labeled casein was separated from unbound label in a Sephadex G-25 (Sigma-Aldrich) column comprised of 90×5 mm packed beads in a glass Pasteur pipette, eluted with dPBS pH7.4 (ThermoFisher Scientific). The fast-moving band (casein-bound fluorophore) was collected in ˜0.4 ml volume. Concentration of resultant probe (casein-Alexa647 in PBS-azide) was estimated via spectrophotometry using Beer's law (Implen Nanophotometer, Implen, Inc. Westlake Village, CA).
as §1, with “nm). Unlabeled pepstatin dose-response curves were used to ensure that the assays were responsive to pepsin inhibition.” for “nm).”
In general terms: Fluorescence polarisation rises when a labelled molecule tumbles more slowly, as on binding a larger partner.

Entries after “also recorded” stand apart in the source; their conditions may differ.

T2 sequence (P00791 60-385): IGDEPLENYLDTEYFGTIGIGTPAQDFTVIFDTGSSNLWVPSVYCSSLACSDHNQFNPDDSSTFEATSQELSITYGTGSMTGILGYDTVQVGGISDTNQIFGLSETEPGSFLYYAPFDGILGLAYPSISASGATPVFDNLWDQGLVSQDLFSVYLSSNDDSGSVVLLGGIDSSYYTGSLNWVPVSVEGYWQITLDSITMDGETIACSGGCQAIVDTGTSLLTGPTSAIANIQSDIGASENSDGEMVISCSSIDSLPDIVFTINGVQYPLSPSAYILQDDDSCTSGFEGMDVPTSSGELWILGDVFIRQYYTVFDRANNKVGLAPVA
T1 sequence (P00791 60-385): as above

As for `CC(C)CN(C[C@@H](OP(=O)(O)O)[C@H](Cc1ccccc1)NC(=O)O[C@H]1CCOC1)S(=O)(=O)c1ccc(N)cc1` [fosamprenavir, [(3S)-oxolan-3-yl] N-[(2S,3R)-4-[(4-aminophenyl)sulfonyl-(2-methylpropyl)amino]-1-phenyl-3-phosphonooxybutan-2-yl]carbamate], the “laryngeal histology, drug with saline (solvent), no pepsin” value in data set [1] (aerosol) is “normal histology”; in data set [1] (gavage), “normal histology”; in data set [1] (gavage, listed as Lexiva) it was “Normal-appearing respiratory epithelium”. Moreover, the “protection against pepsin-mediated laryngeal damage (histology)” value was “prevented pepsin-mediated laryngeal injury; also recorded: protected against pepsin-mediated laryngeal damage” in data set [1] (aerosol, inhaled mass 0.93 mg/kg/day fosamprenavir, 12 mg/kg/day darunavir); “prevented pepsin-mediated laryngeal damage” in data set [1] (gavage, 20 mg/kg/day fosamprenavir (Lexiva), 8.6 mg/kg/day darunavir (Prezista)); “prevented pepsin-mediated laryngeal damage; also recorded: protected against pepsin-mediated laryngeal damage” in data set [1] (gavage, 20 mg/kg/day fosamprenavir (Lexiva), 8.6 mg/kg/day darunavir (Prezista), listed as Fosamprenavir); “prevents pepsin-mediated airway epithelial damage” in data set [1] (gavage, 20 mg/kg/day fosamprenavir (Lexiva), 8.6 mg/kg/day darunavir (Prezista), listed as Lexiva). For the same compound, the pharmacokinetics result in data set [2] is “excellent pharmacokinetics”. Further, the tolerability entry in data set [3] is reported as “favorable tolerability”. Moreover, in data set [4], the bioavailability result is given as “improved bioavailability”.
Consider `CC(C)(C)NC(=O)[C@@H]1C[C@@H]2CCCC[C@@H]2CN1C[C@@H](O)[C@H](Cc1ccccc1)NC(=O)[C@H](CC(N)=O)NC(=O)c1ccc2ccccc2n1` [saquinavir, (2S)-N-[(2S,3R)-4-[(3S,4aS,8aS)-3-(tert-butylcarbamoyl)-3,4,4a,5,6,7,8,8a-octahydro-1H-isoquinolin-2-yl]-3-hydroxy-1-phenylbutan-2-yl]-2-(quinoline-2-carbonylamino)butanediamide], for which the solubility entry in data set [5] was “poor solubility”. In addition, the “bound pepsin (competitive binding)” value in data set [6] is “low micromolar”. For the same compound, the side effects result in data set [3] was “QT prolongation, heart block, high blood lipids and liver problems”. The “inhibited pepsin (peptic activity)” value in data set [7] (200 nM probe, 0.01 U/μL pepsin, 5% DMSO, 0.1 M HCl pH 1) is given as “low micromolar”. For the same compound, the IC50 for pepsin entry in data set [7] (in vitro binding and inhibition assays, IC50 from kinetic traces) is reported as “low micromolar range”.
